The target in assay [1] is USP1-UAF1 (Homo sapiens, UniProt O94782). As to the kind of experiment: Ubiquitin Rhodamine assay for USP1-UAF1 activity. It counts as biochemical. As to the method: Certain compounds of the disclosure were assessed for USP1-UAF1 activity in a Ubiquitin Rhodamine assay as described in Example 135.
The test system of assay [2] is MDA-MB-436 (BRCA1 mutant) cell line. The experiment in a line: Viability assay in BRCA1 mutant cell line MDA-MB-436. The class given is cell-based. As to conditions: Homo sapiens, MDA-MB-436, viability, BRCA1 mutant MDA-MB-436; read-out: MDA-MB-436 rel IC50. From the text: (§1) Table 1 also indicates IC50 values in a viability assay for a non-isogenic pair of BRCA1 mutant (column 5—MDA-MB-436) and BRCA1 WT (column 6—HCC1954) cell lines. These values indicate the effect of treatment with compound on cell survival.

For assay [3], the system named is HCC1954 (BRCA1 WT) cell line. As to the kind of experiment: Viability assay in BRCA1 WT cell line HCC1954. It counts as cell-based. As to conditions: read-out: HCC 1954 IC50 rel IC50.
Description: as §1

The results in this text go back to US20240182481A1 (Tango Therapeutics, Inc., priority 2021, published 2024).

Structures are written as SMILES. Read-outs that look alike come from different tables or passages of the source. Some results are limits rather than exact numbers.

USP1-UAF1, sequence (O94782 whole entry): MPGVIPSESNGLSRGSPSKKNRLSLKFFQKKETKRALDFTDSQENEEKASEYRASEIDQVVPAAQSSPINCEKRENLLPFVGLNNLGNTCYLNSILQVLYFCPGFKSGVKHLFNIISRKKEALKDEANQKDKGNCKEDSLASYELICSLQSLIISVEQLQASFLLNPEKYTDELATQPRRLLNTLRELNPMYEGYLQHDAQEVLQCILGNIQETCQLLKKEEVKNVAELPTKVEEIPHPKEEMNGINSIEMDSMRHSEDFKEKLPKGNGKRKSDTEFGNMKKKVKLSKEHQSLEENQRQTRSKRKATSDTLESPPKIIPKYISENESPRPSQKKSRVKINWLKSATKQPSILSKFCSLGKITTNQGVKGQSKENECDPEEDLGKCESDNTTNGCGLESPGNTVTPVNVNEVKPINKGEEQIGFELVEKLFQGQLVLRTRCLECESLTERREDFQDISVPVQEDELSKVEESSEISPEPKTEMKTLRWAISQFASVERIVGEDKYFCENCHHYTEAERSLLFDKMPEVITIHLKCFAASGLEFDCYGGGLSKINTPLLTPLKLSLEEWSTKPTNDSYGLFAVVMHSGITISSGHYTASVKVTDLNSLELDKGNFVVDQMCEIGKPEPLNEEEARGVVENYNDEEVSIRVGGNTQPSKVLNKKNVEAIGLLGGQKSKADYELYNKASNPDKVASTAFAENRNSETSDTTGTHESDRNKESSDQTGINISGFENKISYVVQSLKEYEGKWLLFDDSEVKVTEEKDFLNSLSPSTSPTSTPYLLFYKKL
USP1-UAF1, sequence (Q8TAF3 whole entry partner): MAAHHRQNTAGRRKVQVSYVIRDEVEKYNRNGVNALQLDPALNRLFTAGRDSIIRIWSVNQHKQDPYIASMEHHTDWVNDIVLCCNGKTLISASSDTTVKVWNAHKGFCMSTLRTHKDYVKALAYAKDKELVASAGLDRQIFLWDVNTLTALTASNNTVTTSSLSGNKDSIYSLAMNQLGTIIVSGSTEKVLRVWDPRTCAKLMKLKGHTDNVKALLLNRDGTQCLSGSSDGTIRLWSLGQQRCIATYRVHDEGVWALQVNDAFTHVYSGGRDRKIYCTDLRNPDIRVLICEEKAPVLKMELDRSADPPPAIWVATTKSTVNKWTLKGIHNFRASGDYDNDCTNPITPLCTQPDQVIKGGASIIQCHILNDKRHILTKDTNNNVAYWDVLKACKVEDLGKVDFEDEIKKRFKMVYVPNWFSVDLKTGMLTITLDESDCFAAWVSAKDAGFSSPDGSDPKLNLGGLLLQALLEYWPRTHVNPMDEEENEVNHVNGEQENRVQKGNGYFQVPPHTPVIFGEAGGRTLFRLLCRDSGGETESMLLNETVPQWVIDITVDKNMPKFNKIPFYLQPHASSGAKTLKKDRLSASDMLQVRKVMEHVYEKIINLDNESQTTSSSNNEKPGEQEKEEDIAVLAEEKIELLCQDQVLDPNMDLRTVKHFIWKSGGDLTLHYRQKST

In general, IC50 refers to the point on the concentration scale where inhibition reaches its midpoint. For `CC(C)c1ccccc1-c1ncc2c(n1)c(C(O)c1ccc(-c3nc(C(F)(F)F)cn3C)cc1)cn2Cc1ccccc1` (centres unmarked) [Compound 80], the figures for the IC50 in assay [1], in assay [2] and in assay [3] (Homo sapiens) were 0.1 to 10 µM, 0.25 to 10 µM and no less than 10 µM, respectively. On the same counts, the results for `CN(c1ccc(-c2nc(C(F)(F)F)cn2C)cc1)c1c[nH]c2cnc(-c3ccccc3C3CC3)nc12` [Compound 13, 2-(2-cyclopropylphenyl)-N-methyl-N-[4-[1-methyl-4-(trifluoromethyl)imidazol-2-yl]phenyl]-5H-pyrrolo[3,2-d]pyrimidin-7-amine] are 0.1 to 10 µM, 0.25 to 10 µM and no less than 10 µM. As for `COc1ncnc(C2CC2)c1-c1ncc2[nH]cc(C(C)c3ccc(-c4nc(C(F)(F)F)cn4C)cc3)c2n1` (single isomer, unassigned) [Compound 192], the IC50 in assay [3] was 0.25 to 10 µM.

On to `CC(C)c1ccccc1-c1ncc2[nH]cc(CN3CCN(c4nc(C(F)(F)F)cn4C)CC3)c2n1` [Compound 35, 2-(2-isopropylphenyl)-7-[[4-[1-methyl-4-(trifluoromethyl)imidazol-2-yl]piperazin-1-yl]methyl]-5H-pyrrolo[3,2-d]pyrimidine], for which the figures for the IC50 in assay [1], in assay [2] and in assay [3] (Homo sapiens) were 0.1 to 10 µM, 0.25 to 10 µM and 0.25 to 10 µM, respectively. On to `CC(C)c1ccccc1-c1ncc2[nH]cc(C(=O)c3ccc(-c4nc(C(F)(F)F)cn4C)cc3)c2n1` [Compound 86, [2-(2-isopropylphenyl)-5H-pyrrolo[3,2-d]pyrimidin-7-yl]-[4-[1-methyl-4-(trifluoromethyl)imidazol-2-yl]phenyl]methanone], for which the IC50 in assay [1] was no less than 10 µM; in assay [2] it was 0.25 to 10 µM; in assay [3] (Homo sapiens), 0.25 to 10 µM.

As for `Cn1cc(C(F)(F)F)nc1-c1ccc(Cc2c[nH]c3cnc(-c4cccnc4O)nc23)cc1` [Compound 56, 3-[7-([4-[1-methyl-4-(trifluoromethyl)imidazol-2-yl]phenyl]methyl)-5H-pyrrolo[3,2-d]pyrimidin-2-yl]pyridin-2-ol], the IC50 in assay [1], in assay [2] and in assay [3] (Homo sapiens) was no less than 10 µM in each case.

Consider `COc1ncnc(C2CC2)c1-c1nc(Cl)c2[nH]cc(Cc3ccc(-c4nc(C(F)(F)F)cn4C)cc3)c2n1` [Compound 187, 4-chloro-2-(4-cyclopropyl-6-methoxy-pyrimidin-5-yl)-7-[[4-[1-methyl-4-(trifluoromethyl)imidazol-2-yl]phenyl]methyl]-5H-pyrrolo[3,2-d]pyrimidine], for which the IC50 was less than 0.03 µM in assay [1], less than 0.1 µM in assay [2] and 0.25 to 10 µM in assay [3] (Homo sapiens). In assay [1], `COc1ncnc(C2CC2)c1-c1nc(CN)c2[nH]cc(Cc3ccc(-c4nc(C(F)(F)F)cn4C)cc3)c2n1` [Compound 201] showed an IC50 of 0.1 to 10 µM. On to `COc1ncnc(C2CC2)c1-c1ncc2[nH]cc(C(O)c3ccc(-c4nc(C(F)(F)F)cn4C4CN(C)C4)cc3)c2n1` (centres unmarked) [Compound 7, (2-(4-cyclopropyl-6-methoxypyrimidin-5-yl)-5H-pyrrolo[3,2-d]pyrimidin-7-yl)(4-(1-(1-methylazetidin-3-yl)-4-(trifluoromethyl)-1H-imidazol-2-yl)phenyl)methanol], for which the half-inhibitory concentration (IC50) in assay [1], in assay [2] and in assay [3] (Homo sapiens) was no less than 10 µM each time. For `COc1ncnc(C2CC2)c1-c1ncc2[nH]cc([C@H](c3ccc(-c4nc(C(F)(F)F)cn4C)cc3)C(C)C)c2n1` (single isomer, unassigned) [Compound 208], the concentration for half-maximal inhibition (IC50) in assay [1] was 0.1 to 10 µM; in assay [2], 0.25 to 10 µM; in assay [3] (Homo sapiens) it was 0.25 to 10 µM. `CNc1ncccc1-c1ncc2[nH]cc(Cc3ccc(-c4nc(C(F)(F)F)cn4C)cc3)c2n1` [Compound 58, N-methyl-3-[7-[[4-[1-methyl-4-(trifluoromethyl)imidazol-2-yl]phenyl]methyl]-5H-pyrrolo[3,2-d]pyrimidin-2-yl]pyridin-2-amine]: the 50% inhibitory concentration (IC50) is 0.1 to 10 µM in assay [1], 0.25 to 10 µM in assay [2] and 0.25 to 10 µM in assay [3] (Homo sapiens). In the case of `COc1ncnc(C(C)C)c1-c1ncc2[nH]nc(Cc3ccc(-c4nc(C(F)(F)F)cn4C)cc3)c2n1` [Compound 112], the IC50 in assay [1] is less than 0.03 µM. Regarding `COc1ncnc(C2CC2)c1-c1ncc2[nH]cc(C(C)c3ccc(-c4nc(C(F)(F)F)cn4C)cc3)c2n1` (centres unmarked) [Compound 128], the IC50 is less than 0.03 µM in assay [1], less than 0.1 µM in assay [2] and no less than 10 µM in assay [3] (Homo sapiens). In assay [1], `COc1ncnc(C2CC2)c1-c1ncc2c(n1)c(Cc1ccc(-c3nc(C(F)(F)F)cn3C)cc1)cn2C1CC1` [Compound 170, 5-cyclopropyl-2-(4-cyclopropyl-6-methoxy-pyrimidin-5-yl)-7-[[4-[1-methyl-4-(trifluoromethyl)imidazol-2-yl]phenyl]methyl]pyrrolo[3,2-d]pyrimidine] registered a concentration for half-maximal inhibition (IC50) of less than 0.03 µM. Consider `COc1ncnc(C2CC2)c1-c1ncc2c(n1)c(Cc1ccc(-c3nc(C(F)(F)F)cn3C)cc1)cn2C` [Compound 39, 2-(4-cyclopropyl-6-methoxy-pyrimidin-5-yl)-5-methyl-7-[[4-[1-methyl-4-(trifluoromethyl)imidazol-2-yl]phenyl]methyl]pyrrolo[3,2-d]pyrimidine], for which the results for the 50% inhibitory concentration (IC50) in assay [1], in assay [2] and in assay [3] (Homo sapiens) were less than 0.03 µM, less than 0.1 µM and no less than 10 µM, respectively.

Turning to `Cn1cc(C(F)(F)F)nc1-c1ccc([S+]([O-])c2c[nH]c3cnc(-c4ccccc4C(F)(F)F)nc23)cc1` (centres unmarked) [Compound 36, 7-[4-[1-methyl-4-(trifluoromethyl)imidazol-2-yl]phenyl]sulfinyl-2-[2-(trifluoromethyl)phenyl]-5H-pyrrolo[3,2-d]pyrimidine], the IC50 in assay [1] lay in the range of 0.1 to 10 µM.

As for `Cn1cc(C(F)(F)F)nc1-c1ccc(C(=O)c2c[nH]c3cnc(-c4cccnc4C4CC4)cc23)cc1` [Compound 53], the IC50 in assay [1], in assay [2] and in assay [3] (Homo sapiens) was no less than 10 µM in each case.

Turning to `COc1ncnc(C2CC2)c1-c1ncc2[nH]cc(C(O)c3ccc(-c4nc(C(F)(F)F)cn4C4CC4)cc3)c2n1` (centres unmarked) [Compound 19, [2-(4-cyclopropyl-6-methoxy-pyrimidin-5-yl)-5H-pyrrolo[3,2-d]pyrimidin-7-yl]-[4-[1-cyclopropyl-4-(trifluoromethyl)imidazol-2-yl]phenyl]methanol], in assay [1], the IC50 lay within 0.1 to 10 µM. On to `CC(C)c1ccccc1-c1ncc2[nH]cc(Nc3ccc(-c4nc(C(F)(F)F)cn4C)cc3)c2n1` [Compound 62, 2-(2-isopropylphenyl)-N-[4-[1-methyl-4-(trifluoromethyl)imidazol-2-yl]phenyl]-5H-pyrrolo[3,2-d]pyrimidin-7-amine], for which the IC50 in assay [1] was in the range of 0.1 to 10 µM; in assay [2], 0.25 to 10 µM; in assay [3] (Homo sapiens), 0.25 to 10 µM. For `COCCc1[nH]c2cnc(-c3c(OC)ncnc3C3CC3)nc2c1C(O)c1ccc(-c2nc(C(F)(F)F)cn2C)cc1` (centres unmarked) [Compound 109, [2-(4-cyclopropyl-6-methoxy-pyrimidin-5-yl)-6-(2-methoxyethyl)-5H-pyrrolo[3,2-d]pyrimidin-7-yl]-[4-[1-methyl-4-(trifluoromethyl)imidazol-2-yl]phenyl]methanol], the concentration for half-maximal inhibition (IC50) in assay [1] is 0.1 to 10 µM; in assay [2], 0.25 to 10 µM; in assay [3] (Homo sapiens), no less than 10 µM. Turning to `Cn1cc(C(F)(F)F)nc1-c1ccc(Cc2n[nH]c3cnc(-c4c(OCF)ncnc4C4CC4)nc23)cc1` [Compound 169], the 50% inhibitory concentration (IC50) in assay [1] is less than 0.03 µM. `COc1ncnc(C2CC2)c1-c1ncc2[nH]nc(Cc3ccc(-c4nc(C(F)(F)F)cn4C(C)C)cc3)c2n1` [Compound 16, 5-(4-cyclopropyl-6-methoxy-pyrimidin-5-yl)-3-[[4-[1-isopropyl-4-(trifluoromethyl)imidazol-2-yl]phenyl]methyl]-1H-pyrazolo[4,3-d]pyrimidine]: the IC50 in assay [2] is less than 0.1 µM; in assay [3] (Homo sapiens), no less than 10 µM. Take `Cn1cc(C(F)(F)F)nc1-c1ccc(S(=O)(=O)c2c[nH]c3cnc(-c4ccccc4C(F)(F)F)nc23)cc1` [Compound 46, 7-[4-[1-methyl-4-(trifluoromethyl)imidazol-2-yl]phenyl]sulfonyl-2-[2-(trifluoromethyl)phenyl]-5H-pyrrolo[3,2-d]pyrimidine]: the concentration for half-maximal inhibition (IC50) in assay [1] is 0.1 to 10 µM. `COc1ncnc(C(C)(C)C)c1-c1ncc2[nH]nc(Cc3ccc(-c4nc(C(F)(F)F)cn4C)cc3)c2n1` [Compound 158]: the 50% inhibitory concentration (IC50) in assay [1] is less than 0.03 µM. Still for that read-out and setting: to `CCn1c(C(F)(F)F)cnc1-c1ccc(Cc2c[nH]c3cnc(-c4c(OC)ncnc4C4CC4)nc23)cc1` [Compound 70] belongs 0.1 to 10 µM; to `Cn1cc(C(F)(F)F)nc1-c1ccc(Cc2c[nH]c3cnc(-c4cccnc4N4CC(F)C4)nc23)cc1` [Compound 68], 0.1 to 10 µM; to `CO[C@@H](c1ccc(-c2nc(C(F)(F)F)cn2C)cc1)c1c[nH]c2cnc(-c3c(OC(F)F)ncnc3C3CC3)nc12` (single isomer, unassigned) [Compound 127], 0.1 to 10 µM.

Turning to `Cn1cc(C(F)(F)F)nc1-c1ccc(Cc2c[nH]c3cnc(-c4ccccc4C(C)(C)O)nc23)cc1` [Compound 157, 2-(2-(7-(4-(1-methyl-4-(trifluoromethyl)-1H-imidazol-2-yl)benzyl)-5H-pyrrolo[3,2-d]pyrimidin-2-yl)phenyl)propan-2-ol], in assay [1], the concentration for half-maximal inhibition (IC50) was less than 0.03 µM. The same measure, in the same setting: to `COc1ncnc(C2CC2)c1-c1ncc2[nH]cc(C(O)c3ccc(-c4nc(C#N)cn4C)cc3)c2n1` (centres unmarked) [Compound 37, 2-[4-[[2-(4-cyclopropyl-6-methoxy-pyrimidin-5-yl)-5H-pyrrolo[3,2-d]pyrimidin-7-yl]-hydroxy-methyl]phenyl]-1-methyl-imidazole-4-carbonitrile] belongs no less than 10 µM; to `CO[C@H](c1ccc(-c2nc(C(F)(F)F)cn2C)cc1)c1c[nH]c2cnc(-c3c(OC(F)F)ncnc3C3CC3)nc12` (single isomer, unassigned) [Compound 149], less than 0.03 µM.
